Source: paper PMC10483525, “Synthesis, Structural Investigations, DNA/BSA Interactions, Molecular Docking Studies, and Anticancer Activity of a New 1,4-Disubstituted 1,2,3-Triazole Derivative” (ACS Omega, 2023)

Legend:
Caco-2 cells [1] = experiment: MMP determination (TMRE, flow cytometry); assay type: cell-based, human; details: Caco-2, 48 h, 7.5, 15, 30 μM
Protocol: Briefly, Caco-2 (5x10^5 per well) were seeded in 6-well plates for 24 h and either untreated or treated with a various concentrations of compound 3 (7.5, 15, 30 μM) for addional 48 h.
Following treatment, cells were harvested and were incubated with 50 nM BD PharmingenTM MitoStatus TMRE for 30 min at 37°C, 5% CO2, followed by resuspending twice with pre-warmed PBS (2000 rpm×3 min). Quantitative changes in mitochondrial membrane potential (MMP) at the early stage of cell apoptosis were measured using BD PharmingenTM MitoStatus TMRE (BD Biosciences, San Jose, CA, USA) and detected by flow cytometry (BD

Caco-2 = experiment: MTT assay; assay type: cell-based, human; details: for IC50: Homo sapiens
Protocol: Human cancer cell lines (MDA-MB-231, LNCaP, Caco-2) and a human healthy cell line (HEK-293) were obtained from the European Collection of Cell Cultures. The cells were incubated in a humidified incubator (37 °C, 5% CO2) and cultured under standard conditions in Dulbecco’s modified Eagle medium (DMEM), 10% heat-inactivated fetal bovine serum, 100 U mL^–1 penicillin, 100 U mL^–1 streptomycin, and 4 mM L-glutamine. […] A cell culture medium was used to make further dilutions, while keeping the equivalent of DMF below 0.5% of the total volume.[94] […]
7. Cell Viability Inhibition Assay
MDA-MB-231, LNCaP, Caco-2 and HEK-293 cells (5x10^3 per well) seeded in 96-well plates to assess cell viability by the 3-[4,5-dimethylthiazol-2-yl]-2,5-diphenyltetrazolium bromide (MTT) assay for 24 h at 37°C. Then cells were treated with compound 3 at different concentrations (3-100 µM) at 100μl/well. […]
and etoposid was used as positive controls under identical conditions. After 24, 48 and 72 h incubation, 5 mg/ml MTT solution (20 μl/well) was added and cultured for another 4 h. Then, the supernatant was discarded and dimethyl sulfoxide was added (100 μl/well). The absorbance (A) was measured spectrophotometrically at 540 nm by a Microplate Reader (SpectraMax i3x).
A graph was plotted between the concentrations of the extract versus the percent viability. The […]
calculated from graph. All assays were performed in three replicates per concentration level. 11 […]

[2] = molecular target: T1, BSA (bovine serum albumin) (Bos taurus, UniProt P02769); experiment: BSA UV–vis absorption; assay type: binding; details: BSA 10 μM + compound 10 μM
T1 construct: purchased Merck/Sigma
Protocol: The BSA–compound interactions are studied by comparing the UV–vis spectra (200–400 nm) of BSA (10 μM) alone and a mixture of [BSA (10 μM) + compound 3 (10 μM)] at room temperature in 10 mM Tris-HCl buffer with a pH of 7.4.[85]

[3] = molecular target: T1, BSA (bovine serum albumin); experiment: BSA fluorescence quenching; assay type: binding; details: for Kq (bimolecular quenching constant): Ksv = kqτ0, τ0 10 ns; for ΔG: van't Hoff equation from Kbin, BSA binding
Protocol: BSA fluorescence spectral studies of the compound and related calculations were the same as those performed for the [CT-DNA + EB] quenching method described in Section 4.5. Detailed experimental procedures and the calculations of the binding data are given in the SI. […]
The quenching efficiency of the compound was analysed using the Stern-Volmer equation.
Io/I = 1 + K sv[Q] = 1 + k qτ0[Q] […]
where I o and I are the emission intensities of CT-DNA+EB complex in the absence and each […]
addition of compound, respectively and [Q] is the concentration of quencher. The Stern-Volmer […]
(quenching) constant, K sv was determined from the slope of the linear plot of I o/I versus [Q].
To have an insight into the kinetics of the competitive binding process, the bimolecular […]
quenching rate constant, k q values were also computed using the Stern-Volmer equation. […]
where n is the number of binding sites per nucleotide. 8
Fluorescence Spectral Studies
Quenching of fluorescence emission of BSA by compound was performed in order to determine […]
its binding constant. Stock concentration of BSA (5 μM) was prepared in 10 mM Tris- HCl […]
buffer at pH = 7.4. The emission spectra of 5 μM BSA solutions in the absence and presence of […]
compound of concentration ranging from 0 to 8 μM were acquired at room temperature. The […]
emission changes were recorded in the λ em range of 300 to 450 nm, with the excitation wavelength set at 280 nm. Each spectrum was recorded after an incubation time of 10 minutes.
The quenching efficiency of the compound was calculated using the Stern-Volmer equation as discussed above. The Stern-Volmer (quenching) constant, K sv was determined from the slope of the linear plot of I o/I versus [Q]. To have an insight into the kinetics of the competitive binding process, the bimolecular quenching rate constant, k q values were also computed using the same Stern Volmer equation, where τ 0 is the average fluorescence lifetime of the BSA alone is 10 nanoseconds. 9 Scatchard plots also gave the binding constant K bin as determined from the fluorescence titration using Scatchard equation. 10 The standard Gibbs free (ΔG) of compound

Caco-2 cells [4] = experiment: ROS determination (flow cytometry); assay type: cell-based, human; details: Caco-2, 48 h, 0, 7.5, 1.5, and 30 μM
Protocol: Biosciences, San Jose, CA, USA)
The intracellular ROS generation was evaluated using The Total Reactive Oxygen Species
(ROS) Assay Kit. Caco2 cells (5x10^5 per well) were seeded in 6-well plates and were incubated for 24 h in a 37°C incubator with 5% CO2. Then cells were treated with compound 3 ([…]) for 48 h to induce production of ROS. Cells were harvested and incubated with 10 […] H2DCFDA for 30 min at 37°C incubator with 5% CO2, followed by resuspending three times with pre-warmed HBSS (2000 rpm×3 min). Total ROS levels in live cells were measured using a flow cytometry (BD Biosciences, San Jose, CA, USA).

T1 sequence (P02769 25-607): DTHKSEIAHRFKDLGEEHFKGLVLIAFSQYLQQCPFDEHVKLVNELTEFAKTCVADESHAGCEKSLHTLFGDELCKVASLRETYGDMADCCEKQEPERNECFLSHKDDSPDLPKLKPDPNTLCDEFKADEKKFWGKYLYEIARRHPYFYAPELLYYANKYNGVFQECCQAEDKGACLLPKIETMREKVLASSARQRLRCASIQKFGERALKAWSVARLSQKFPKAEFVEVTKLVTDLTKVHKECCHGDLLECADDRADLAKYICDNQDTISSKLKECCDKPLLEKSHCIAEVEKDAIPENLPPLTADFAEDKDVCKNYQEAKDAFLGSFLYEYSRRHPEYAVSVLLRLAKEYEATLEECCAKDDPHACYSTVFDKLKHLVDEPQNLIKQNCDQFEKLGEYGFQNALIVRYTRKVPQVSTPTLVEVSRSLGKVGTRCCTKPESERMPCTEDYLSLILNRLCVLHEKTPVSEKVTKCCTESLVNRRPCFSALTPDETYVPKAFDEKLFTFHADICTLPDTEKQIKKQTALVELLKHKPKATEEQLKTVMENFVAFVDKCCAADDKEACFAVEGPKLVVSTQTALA

O=Cc1ccc(OCc2cn(-c3ccc(Cl)c(Cl)c3)nn2)cc1O [Compound 3, 4-((1-(3,4-Dichlorophenyl)-1H-1,2,3-triazol-4-yl)methoxy)-2-hydroxybenzaldehyde]
loss of mitochondrial membrane potential (MMP) (Caco-2 cells [1]): significant increase in MMP loss
SI HEK-293/Caco-2 (Caco-2; 48 h, SI = IC50 on normal cells/IC50 on cancer cells): 1.46
SI, times higher than cisplatin (Caco-2; Caco-2 cells): 10 times
IC50 (Caco-2; Caco-2, 24 h): 31.7 ± 0.34 µM
IC50 (Caco-2; Caco-2, 48 h): 16.6 ± 0.27 µM
IC50 (Caco-2; Caco-2, 72 h): 11.77 ± 0.01 µM
Δλ (blue shift of BSA absorption) [2]: ~1 nm
quenching of BSA fluorescence intensity at ∼345 nm ([3]; BSA 5 μM, compound 0 to 8 μM): 69.12%
red shift of BSA emission ([3]; BSA 5 μM, compound 0 to 8 μM): 5 nm
Ksv (Stern–Volmer quenching constant) ([3]; BSA 5 μM, compound 0–8 μM, λex 280 nm): 1.99 × 10^5 M^–1
Kq (bimolecular quenching constant) ([3]; BSA): 1.99 × 10^13 M^–1·s^–1
Kq (bimolecular quenching constant) ([3]; BSA, listed as compound 3): ~10^13 M^–1·s^–1
n (number of binding sites) ([3]; Scatchard equation, BSA): 0.80
Kd ([3]; Scatchard equation, BSA 5 μM, read-out: Kbin (binding constant) (converted)): 45.9 µM
ΔG [3]: –24.75 kJ·mol^–1
ΔG ([3]; listed as compound 3): −24.75 kJ·mol^–1
ROS production (fluorescence intensity) (Caco-2 cells [4]): increased the fluorescence intensity
melting point: 144 to 145 °C
